Assay [1] deals with HIV in human T4 cells. As to the kind of experiment: Anti-HIV experiments performed at the Southern Research Institute (SRI). The conditions noted are these: for Fold Increase in Potency: SRI, Control/Expt, relative to the parent drug (AZT or ddC). The class given is cell-based. The text has this:
The results of the experiments performed at SRI are shown in Table 2; the results were expressed in terms of inhibitory concentration
These in vitro data in human cells establish that conjugating ddC drugs to DHA achieves higher activity (between >5400 fold to 55 to 13 fold) against HIV in human T4 cells. In particular, conjugation of DHA to ddC drugs at the pyrimidine ring of ddC rather than the pentose ring is preferred based upon the unexpected results of the foregoing assays.

The subject of assay [2] is HIV-1 (RF strain). As to the kind of experiment: NCI AIDS antiviral screen: inhibition of HIV-1 cytopathicity in T4 lymphocytes (CEM line), XTT viability. The following applies: for EC50: NCI screen, mean value. The assay is classed as cell-based. As to the method: Three DHA-ddC (compounds 8, 9, and 10 above) and one DHA-AZT conjugate (the compound described above) were sent to the National Cancer Institute's AIDS antiviral screen to test their anti-HIV activity in vitro. The compounds were provided as solutions in ethanol. The vials containing the conjugates were sealed under argon to prevent oxygen from possibly degrading the conjugates. Instructions were provided to store the vials containing the conjugates at 4° C. and to open the vials immediately before use.
The primary screen used by the NCI for anti-HIV activity utilizes the cytopathicity of HIV-1 for human T4 lymphocytes and the inhibition of such killing by drugs that inhibit viral cytotoxicity. The experimental protocols are described by Weislow et al., (J. Natl. Cancer Inst. 81:577-586, 1989) and Bader (, whose contents are incorporated herein by reference. Briefly, the compounds are diluted first in DMSO or other appropriate solvent, then diluted 1:100 in cell culture medium before preparing serial half log10 dilutions. T4 lymphocytes (CEM line) are added, and after a brief interval HIV-1 (RF strain) is added. Appropriate controls (infected and uninfected cells without compound, and non-infected cells with the compound) are included in the plate format. The cultures are incubated at 37° C. for six days during which time the cells proliferate, the virus reproduces and kills the cells. Cell viability is measured by the ability of cells to convert a colorless tetrazolium salt (XTT) to a highly colored soluble formazan. The intensity of the color is read in a spectrophotometer using an automated system. The wells are also examined microscopically to confirm the protective activity of the compounds.

The mark [3] stands for this setting: SRI experiments, read-out: Inhibitory Concentration.
Where [4] appears, read: Human immunodeficiency virus 1, SRI experiments, read-out: Inhibitory Concentration.
The mark [5] stands for this setting: Human immunodeficiency virus 1, Lymphocyte.

Where two headings read alike, the source gives them in different places. A value given as a limit tells only on which side of the number the result lay.

Consider `CC/C=C\C/C=C\C/C=C\C/C=C\C/C=C\C/C=C\CCC(=O)OC[C@@H]1CC[C@H](n2ccc(N)nc2=O)O1` [DHA-ddC 10], for which, in assay [1] (setting [3]), the IC50 was found to be 10 nM. Besides, the “Fold Increase in Potency” value in assay [1] was 38 fold.
For the molecule `Cc1cn([C@H]2CC(N=[N+]=[N-])[C@@H](CO)O2)c(=O)[nH]c1=O` (stereo partly drawn) [AZT, reference compound], in assay [1] (setting [4]), the IC50 was found to be 100 nM. In assay [1], the “Fold Increase in Potency” value turned out to be 1.0 fold. This molecule gave an EC50 in assay [2] (setting [5]) of 17.7 nM.
With `Nc1ccn([C@H]2CC[C@@H](CO)O2)c(=O)n1` [ddC, 2′,3′-dideoxycytidine, reference compound], the IC50 in assay [1] (Human immunodeficiency virus 1, read-out: Inhibitory Concentration) was 300 nM. In addition, the “Fold Increase in Potency” value in assay [1] came to 1.0 fold. In assay [2] (setting [5]), this molecule returned an EC50 of 114 nM.
Take `CC/C=C\C/C=C\C/C=C\C/C=C\C/C=C\C/C=C\CCC(=O)OC[C@H]1O[C@@H](n2cc(C)c(=O)[nH]c2=O)C[C@@H]1N=[N+]=[N-]` [DHA-AZT]: the IC50 in assay [1] (setting [3]) came out at 60 nM. Moreover, in assay [1], the “Fold Increase in Potency” value is on record as 1.7 fold. In assay [1] (same assays as the DHA-ddC conjugates), the “activity relative to AZT alone” value is recorded as “not increased”. This molecule also yielded an EC50 in assay [2] of 26.2 nM. In assay [2] (NCI studies), the “anti-HIV activity of the conjugate relative to that of the parent drug, AZT” value was “did not alter the anti-HIV activity”.
Take `CC/C=C\C/C=C\C/C=C\C/C=C\C/C=C\C/C=C\CCC(=O)Nc1ccn([C@H]2CC[C@@H](COC(=O)CC/C=C\C/C=C\C/C=C\C/C=C\C/C=C\C/C=C\CC)O2)c(=O)n1` [DHA-ddC 9]: the IC50 in assay [1] (setting [4]) worked out at 30 nM. Besides, the “Fold Increase in Potency” value in assay [1] was found to be 12.7 fold.
As for `CC/C=C\C/C=C\C/C=C\C/C=C\C/C=C\C/C=C\CCC(=O)Nc1ccn([C@H]2CC[C@@H](CO)O2)c(=O)n1` [DHA-ddC 8], the IC50 in assay [1] (setting [4]) was found to be 6.93 nM. In addition, in assay [1], the “Fold Increase in Potency” value is on record as 54.8 fold. The “Fold Increase in Potency over ddC” value in assay [2] (mean EC50 for ddC (moles/L) divided by EC50 of the conjugate (moles/L)) is given as greater than 3807 fold.

A word on the EC50: it is the midpoint of the concentration-response curve.
